From US20060293383A1, “Carbamate compounds for use in preventing or treating neuropathic pain and cluster and migraine headache-associated pain” (priority 2001, published 2006)

Test system: Chung model of neuropathic pain
Test: Antiallodynic activity in the Chung model (spinal nerve ligation), manually applied von Frey probes
Assay type: in vivo, Sprague-Dawley rats
Conditions: for % Maximum Possible Effect: 30 min after oral dosing (time of peak effect), L5 spinal nerve ligated rats, paw withdrawal threshold
From the text: The procedure used to test the antiallodynic activity of an enantiomer of Formula (I) substantially free of other enantiomers was the procedure for the measurement of allodynia found in the Chung Model (Kim S. H. and Chung J. M., An Experimental Model for Peripheral Neuropathy Produced by Segmental Spinal Nerve Ligation in the Rat, Pain, 1992, 50, 355-363).
Evaluation of Antiallodynic Activity (Manually Applied Von Frey Probes) Animals
Pathogen-free, male albino Sprague-Dawley rats, 200 g, were purchased from Harlan Industries (Indianapolis, Ind.) and maintained on a 12-h light/dark cycle (lights on at 06:00 h) in a climate-controlled room with food and water available ad libitum up to the time of the testing and food withdrawn 18 hr prior to testing.
Surgical Procedure and Measurement of Allodynia
The rats were anesthetized with isoflurane inhalant anesthesia. The left lumbar spinal nerve at the level of L5 was tightly ligated (4-0 silk suture) distal to the dorsal root ganglion and prior to entrance into the sciatic nerve, as described by Kim and Chung. The incisions were closed and the rats were allowed to recover under conditions described above. This procedure results in mechanical allodynia in the left hind paw. The sham operation, when performed, consisted of a similar surgical procedure lacking only the final ligation of the spinal nerve. Mechanical (tactile) allodynia was assessed by recording the pressure at which the affected paw (ipsilateral to the site of nerve injury) was withdrawn from graded stimuli (von Frey filaments ranging from 4.0 to 148.1 mN) applied by hand perpendicularly to the plantar surface of the paw (between the footpads) through wire-mesh observation cages. A paw withdrawal threshold (PWT) was determined by sequentially increasing and decreasing the stimulus strength and analyzing withdrawal data using a Dixon non-parametric test, as described by Chaplan et al (Chaplan S. R., Bach F. W., Pogrel J. W., Chung J. M. and Yaksh T. L., Quantitative Assessment of Tactile Allodynia in the Rat Paw, J Neurosci Meth, 1994, 53, 55-63). […]

## NC(=O)OC[C@H](O)c1ccccc1Cl [Formula (Ib)]
30 mg/kg po
  % Maximum Possible Effect: 11%
100 mg/kg po
  % Maximum Possible Effect: 28%
After oral dosing, 30 and 100 mg/kg
  time of peak antiallodynic effect: 30 min
